Assay results from PMC10252048, “Correction: Gubič et al. Design of New Potent and Selective Thiophene-Based KV1.3 Inhibitors and Their Potential for Anticancer Activity. Cancers 2022, 14, 2595” (Cancers, 2023).

Legend:
Assay in all cases: selectivity, HiClamp system on oocytes
Type in all cases: cell-based
Settings in all cases: 10 µM
KV1.2 = target: T1, KV1.2 (Homo sapiens, UniProt P16389)
T1 construct: expressed in transfected cells; host or cells: Xenopus laevis oocytes

KV2.1 = target: T2, KV2.1 (Homo sapiens, UniProt Q14721)
T2 construct: expressed in transfected cells; host or cells: Xenopus laevis oocytes
T2 sequence (Q14721 1-858): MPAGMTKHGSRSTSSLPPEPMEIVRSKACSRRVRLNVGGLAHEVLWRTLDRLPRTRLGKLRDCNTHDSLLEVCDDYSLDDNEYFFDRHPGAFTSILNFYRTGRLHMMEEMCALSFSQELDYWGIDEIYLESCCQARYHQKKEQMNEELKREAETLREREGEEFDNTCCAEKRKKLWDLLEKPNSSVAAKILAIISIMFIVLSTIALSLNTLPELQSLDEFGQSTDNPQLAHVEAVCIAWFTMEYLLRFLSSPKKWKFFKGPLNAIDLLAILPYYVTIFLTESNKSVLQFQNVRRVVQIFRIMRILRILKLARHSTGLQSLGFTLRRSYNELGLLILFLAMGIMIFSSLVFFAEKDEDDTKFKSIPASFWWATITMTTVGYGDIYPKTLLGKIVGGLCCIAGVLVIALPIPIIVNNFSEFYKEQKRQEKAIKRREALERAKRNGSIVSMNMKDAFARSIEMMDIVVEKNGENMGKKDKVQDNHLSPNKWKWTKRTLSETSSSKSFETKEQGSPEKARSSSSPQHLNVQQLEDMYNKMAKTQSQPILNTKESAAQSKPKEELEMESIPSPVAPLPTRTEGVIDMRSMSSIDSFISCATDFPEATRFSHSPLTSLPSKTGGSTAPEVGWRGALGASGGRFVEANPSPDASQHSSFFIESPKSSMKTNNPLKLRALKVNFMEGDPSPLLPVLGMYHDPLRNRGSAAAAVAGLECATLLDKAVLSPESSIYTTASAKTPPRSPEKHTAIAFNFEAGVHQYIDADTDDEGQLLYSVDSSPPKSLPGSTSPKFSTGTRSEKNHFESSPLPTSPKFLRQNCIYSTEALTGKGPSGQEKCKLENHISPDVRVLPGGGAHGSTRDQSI

KV1.5 = target: T3, KV1.5 (Homo sapiens, UniProt P22460)
T3 construct: expressed in transfected cells; host or cells: Xenopus laevis oocytes
T3 sequence (P22460 whole entry): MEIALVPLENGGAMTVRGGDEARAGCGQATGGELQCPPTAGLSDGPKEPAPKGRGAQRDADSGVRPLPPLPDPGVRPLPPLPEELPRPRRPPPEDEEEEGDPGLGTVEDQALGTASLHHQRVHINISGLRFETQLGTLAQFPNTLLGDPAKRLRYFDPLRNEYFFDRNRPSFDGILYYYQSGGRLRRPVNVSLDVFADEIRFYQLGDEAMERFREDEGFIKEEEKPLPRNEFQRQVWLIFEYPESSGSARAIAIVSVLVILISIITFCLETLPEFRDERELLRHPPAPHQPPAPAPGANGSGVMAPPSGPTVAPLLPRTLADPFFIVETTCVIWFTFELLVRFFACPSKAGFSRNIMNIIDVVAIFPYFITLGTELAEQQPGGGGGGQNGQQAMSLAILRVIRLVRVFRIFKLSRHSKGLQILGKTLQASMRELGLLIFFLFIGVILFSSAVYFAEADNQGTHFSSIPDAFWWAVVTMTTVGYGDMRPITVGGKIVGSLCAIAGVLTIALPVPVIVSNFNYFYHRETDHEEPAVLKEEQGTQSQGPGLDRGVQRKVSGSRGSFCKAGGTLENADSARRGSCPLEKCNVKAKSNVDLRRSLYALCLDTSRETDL

KV1.6 = target: T4, KV1.6 (Homo sapiens, UniProt P17658)
T4 construct: expressed in transfected cells; host or cells: Xenopus laevis oocytes
T4 sequence (P17658 whole entry): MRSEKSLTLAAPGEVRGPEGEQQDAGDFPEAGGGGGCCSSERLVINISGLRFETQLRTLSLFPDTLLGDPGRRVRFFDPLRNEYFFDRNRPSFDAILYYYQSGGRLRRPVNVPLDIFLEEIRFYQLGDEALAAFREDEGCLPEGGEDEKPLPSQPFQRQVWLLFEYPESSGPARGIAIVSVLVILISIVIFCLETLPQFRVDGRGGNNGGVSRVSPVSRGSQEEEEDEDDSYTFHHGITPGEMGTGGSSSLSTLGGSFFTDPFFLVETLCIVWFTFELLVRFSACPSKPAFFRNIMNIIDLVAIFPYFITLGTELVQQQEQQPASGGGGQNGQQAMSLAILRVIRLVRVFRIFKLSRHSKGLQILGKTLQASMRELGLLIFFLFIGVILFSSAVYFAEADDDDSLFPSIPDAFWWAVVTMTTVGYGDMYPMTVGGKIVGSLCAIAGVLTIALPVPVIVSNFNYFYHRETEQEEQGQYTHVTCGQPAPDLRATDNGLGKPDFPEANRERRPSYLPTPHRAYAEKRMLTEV

KV10.1 = target: T5, KV10.1 (Homo sapiens, UniProt O95259)
T5 construct: expressed in transfected cells; host or cells: Xenopus laevis oocytes
T5 sequence (O95259 1-989): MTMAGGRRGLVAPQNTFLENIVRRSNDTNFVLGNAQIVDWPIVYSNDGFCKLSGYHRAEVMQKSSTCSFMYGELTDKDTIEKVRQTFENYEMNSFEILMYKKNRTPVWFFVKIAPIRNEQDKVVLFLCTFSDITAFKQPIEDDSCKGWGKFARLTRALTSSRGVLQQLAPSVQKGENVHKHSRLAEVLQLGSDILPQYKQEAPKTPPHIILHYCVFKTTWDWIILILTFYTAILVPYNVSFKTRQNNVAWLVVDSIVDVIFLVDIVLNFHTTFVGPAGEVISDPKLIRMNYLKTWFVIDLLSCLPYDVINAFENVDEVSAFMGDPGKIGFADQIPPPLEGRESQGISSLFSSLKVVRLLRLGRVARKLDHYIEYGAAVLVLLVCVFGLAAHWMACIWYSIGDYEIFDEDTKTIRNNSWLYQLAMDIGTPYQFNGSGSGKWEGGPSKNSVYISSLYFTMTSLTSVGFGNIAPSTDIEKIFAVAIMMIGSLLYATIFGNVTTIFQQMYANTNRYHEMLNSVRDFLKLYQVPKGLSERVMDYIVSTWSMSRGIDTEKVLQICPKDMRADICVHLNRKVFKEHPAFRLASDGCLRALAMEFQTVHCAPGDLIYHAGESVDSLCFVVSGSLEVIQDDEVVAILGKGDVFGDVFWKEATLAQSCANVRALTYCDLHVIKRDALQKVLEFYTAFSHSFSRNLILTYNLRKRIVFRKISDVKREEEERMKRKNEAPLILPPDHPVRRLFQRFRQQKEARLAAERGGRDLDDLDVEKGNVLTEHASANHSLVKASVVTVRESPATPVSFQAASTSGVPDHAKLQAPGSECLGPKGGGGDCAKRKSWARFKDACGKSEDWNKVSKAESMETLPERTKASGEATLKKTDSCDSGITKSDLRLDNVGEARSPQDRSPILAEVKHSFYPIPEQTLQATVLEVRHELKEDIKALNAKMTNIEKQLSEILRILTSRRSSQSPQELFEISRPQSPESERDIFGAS

KV4.2 = target: T6, KV4.2 (Homo sapiens, UniProt Q9NZV8)
T6 construct: expressed in transfected cells; host or cells: Xenopus laevis oocytes
T6 sequence (Q9NZV8 1-630): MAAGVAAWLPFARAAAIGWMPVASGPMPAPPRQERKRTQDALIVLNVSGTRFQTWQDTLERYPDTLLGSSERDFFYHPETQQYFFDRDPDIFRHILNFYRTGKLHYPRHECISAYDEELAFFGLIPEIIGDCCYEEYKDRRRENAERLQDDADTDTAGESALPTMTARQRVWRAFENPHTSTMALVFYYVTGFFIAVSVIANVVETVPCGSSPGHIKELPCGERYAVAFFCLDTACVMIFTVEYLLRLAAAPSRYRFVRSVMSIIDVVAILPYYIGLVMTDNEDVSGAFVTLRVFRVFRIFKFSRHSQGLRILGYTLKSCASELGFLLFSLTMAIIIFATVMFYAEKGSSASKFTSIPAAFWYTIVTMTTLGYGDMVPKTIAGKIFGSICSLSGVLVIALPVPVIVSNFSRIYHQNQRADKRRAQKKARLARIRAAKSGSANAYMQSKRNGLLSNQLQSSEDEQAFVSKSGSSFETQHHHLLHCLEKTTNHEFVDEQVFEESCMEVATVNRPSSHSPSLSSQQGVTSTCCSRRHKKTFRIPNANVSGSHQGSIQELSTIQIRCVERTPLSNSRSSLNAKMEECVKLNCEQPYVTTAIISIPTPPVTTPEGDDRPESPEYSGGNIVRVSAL

KV1.4 = target: T7, KV1.4 (Homo sapiens, UniProt P22459)
T7 construct: expressed in transfected cells; host or cells: Xenopus laevis oocytes
T7 sequence (P22459 whole entry): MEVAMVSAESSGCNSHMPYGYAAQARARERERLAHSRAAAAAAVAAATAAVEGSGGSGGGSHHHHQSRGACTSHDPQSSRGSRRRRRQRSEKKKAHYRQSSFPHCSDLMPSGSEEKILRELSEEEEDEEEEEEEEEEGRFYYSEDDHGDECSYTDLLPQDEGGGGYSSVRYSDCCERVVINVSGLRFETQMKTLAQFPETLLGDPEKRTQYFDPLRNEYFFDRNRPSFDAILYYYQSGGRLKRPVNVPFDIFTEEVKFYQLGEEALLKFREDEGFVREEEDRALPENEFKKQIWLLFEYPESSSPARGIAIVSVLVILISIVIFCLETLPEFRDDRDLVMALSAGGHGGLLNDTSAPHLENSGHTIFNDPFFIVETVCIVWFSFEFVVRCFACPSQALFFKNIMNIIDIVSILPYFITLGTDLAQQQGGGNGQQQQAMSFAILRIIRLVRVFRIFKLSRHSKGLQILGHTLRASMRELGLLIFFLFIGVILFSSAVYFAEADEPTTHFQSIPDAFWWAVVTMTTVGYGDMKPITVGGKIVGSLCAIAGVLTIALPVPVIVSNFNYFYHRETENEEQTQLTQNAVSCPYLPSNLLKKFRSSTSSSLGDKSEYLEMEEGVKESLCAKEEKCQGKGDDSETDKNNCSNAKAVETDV

KV1.1 = target: T8, KV1.1 (Homo sapiens, UniProt Q09470)
T8 construct: expressed in transfected cells; host or cells: Xenopus laevis oocytes
T8 sequence (Q09470 whole entry): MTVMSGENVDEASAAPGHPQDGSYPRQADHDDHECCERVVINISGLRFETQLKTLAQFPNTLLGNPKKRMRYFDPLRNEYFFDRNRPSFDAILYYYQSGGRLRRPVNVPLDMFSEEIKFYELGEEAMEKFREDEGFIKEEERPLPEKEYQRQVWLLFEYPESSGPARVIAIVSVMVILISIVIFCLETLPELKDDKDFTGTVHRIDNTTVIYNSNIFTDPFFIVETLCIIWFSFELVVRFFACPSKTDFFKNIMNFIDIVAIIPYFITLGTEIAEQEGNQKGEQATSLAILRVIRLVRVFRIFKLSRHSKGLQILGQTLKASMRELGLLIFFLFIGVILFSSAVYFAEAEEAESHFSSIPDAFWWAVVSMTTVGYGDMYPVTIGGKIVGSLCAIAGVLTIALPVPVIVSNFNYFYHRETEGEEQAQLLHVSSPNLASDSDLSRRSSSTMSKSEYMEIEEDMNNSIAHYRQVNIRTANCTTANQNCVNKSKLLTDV

T1 sequence (P16389 whole entry): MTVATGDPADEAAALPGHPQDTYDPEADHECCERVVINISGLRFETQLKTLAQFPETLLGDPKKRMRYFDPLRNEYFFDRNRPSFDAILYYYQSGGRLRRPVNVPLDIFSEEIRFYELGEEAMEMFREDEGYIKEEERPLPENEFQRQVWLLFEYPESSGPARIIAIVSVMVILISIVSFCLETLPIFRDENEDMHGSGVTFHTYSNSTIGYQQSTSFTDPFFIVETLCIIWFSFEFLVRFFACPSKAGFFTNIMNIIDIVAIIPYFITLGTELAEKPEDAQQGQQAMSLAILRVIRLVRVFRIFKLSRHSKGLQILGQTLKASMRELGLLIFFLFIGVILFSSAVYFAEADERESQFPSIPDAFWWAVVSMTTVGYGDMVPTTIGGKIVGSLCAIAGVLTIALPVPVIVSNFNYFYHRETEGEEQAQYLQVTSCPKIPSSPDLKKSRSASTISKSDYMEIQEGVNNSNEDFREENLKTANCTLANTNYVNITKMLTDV

effect on KV1.2 (KV1.2): no significant effects | effect on KV2.1 (KV2.1): no significant effects | effect on KV1.5 (KV1.5): no significant effects | effect on KV1.6 (KV1.6): no significant effects | effect on KV10.1 (KV10.1): no significant effects | effect on KV4.2 (KV4.2): no significant effects | effect on KV1.4 (KV1.4): no significant effects | effect on KV1.1 (KV1.1): no significant effects
SMILES: O=c1ccc2c(OCCCCOc3ccccc3)c3ccoc3cc2o1 [PAP-1 (1), PAP-1]
